What was measured:
[1] = test system: primary culture of rat hepatocytes; experiment: Hepatotoxicity in primary culture of hepatocytes; assay type: cell-based; details: 0.1 to 100 μM; 48 hours
Procedure: The percentage of cytolysed hepatocytes over time was determined by time lapse imaging with a fluorescent cytolysis marker. The number of bile canaliculi after 48 hours of treatment was determined using a fluorescent bile salt analog.
Primary rat hepatocytes from 10-12 weeks old Wistar rats were isolated using a two-step collagenase perfusion method. After 24 hours, cells were covered with a layer of Matrigel to perform a sandwich configuration culture. […] Cells were then stained using a fluorescent bile salt analog to measure the bile canaliculi network state and the Bsep pump activity. Acetaminophen (30 mM) and Cyclosporin A (1 μM) were added as positive controls of hepatotoxicity and biliary canaliculi loss, respectively.

[2] = biological target: T1, Steroid nuclear receptors GR (Homo sapiens, UniProt P04150); experiment: CEREP binding profile: GR
T1 construct: CEREP
T1 sequence (P04150 whole entry): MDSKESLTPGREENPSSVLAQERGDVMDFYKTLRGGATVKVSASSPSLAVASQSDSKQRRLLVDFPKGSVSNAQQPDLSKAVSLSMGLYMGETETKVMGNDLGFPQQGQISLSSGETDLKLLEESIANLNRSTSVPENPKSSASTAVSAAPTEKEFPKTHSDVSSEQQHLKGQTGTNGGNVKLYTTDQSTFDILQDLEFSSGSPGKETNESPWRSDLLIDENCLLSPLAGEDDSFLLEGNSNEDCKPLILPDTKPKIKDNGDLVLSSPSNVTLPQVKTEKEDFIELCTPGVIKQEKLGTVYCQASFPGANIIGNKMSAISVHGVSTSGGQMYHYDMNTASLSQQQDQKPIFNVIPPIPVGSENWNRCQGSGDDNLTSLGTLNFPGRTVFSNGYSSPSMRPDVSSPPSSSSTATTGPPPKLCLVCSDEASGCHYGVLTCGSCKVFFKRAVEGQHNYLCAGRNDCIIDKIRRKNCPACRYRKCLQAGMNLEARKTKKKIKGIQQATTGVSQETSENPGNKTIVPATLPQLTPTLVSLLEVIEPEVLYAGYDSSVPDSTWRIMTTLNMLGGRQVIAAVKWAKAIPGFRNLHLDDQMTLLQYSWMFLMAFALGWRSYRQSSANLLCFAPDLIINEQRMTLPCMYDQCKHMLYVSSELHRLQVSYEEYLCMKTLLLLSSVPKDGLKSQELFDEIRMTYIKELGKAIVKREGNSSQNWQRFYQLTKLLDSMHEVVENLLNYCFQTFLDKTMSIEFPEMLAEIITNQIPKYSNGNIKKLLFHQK
From the text: The CEREP High-throughput profile consists of a broad collection of 80 transmembrane and soluble receptors, ion channels and G-Protein coupled receptors.

Ts65Dn mice = experiment: Declarative/relational memory (radial maze flexibility test), Down syndrome model; assay type: in vivo, mouse; details: 0.6 μg/ml in drinking water
Procedure: The relational memory task was performed using 8-arm radial mazes. The diameter of the central platform was 30 cm and the arms were 55 cm length; 10 cm width and 100 cm height from the floor. Each arm was equipped with a retractable door at its entrance and with a food-pellet delivering system at its end. Each maze was placed in a room containing visual cues on the walls to enable spatial discrimination. There was no intra-maze cue. Each maze was fully automated by videotracking (IMETRONIC Pessac—France). This allowed to automatically control the doors of the arms (opening/closure) and food delivery according to the location of the mouse.
Food-restricted mice (85% of their original body weight all throughout the study) were first submitted to 3 sessions of habituation to the mazes. During each habituation session, the mouse freely explored the maze until it visited each of the 8 arms, or 30 min elapsed. At the beginning of each habituation session, the mouse was placed in the central platform with all the arms closed. […]
The number of correct responses was measured at each session. […]
At the end of the behavioral study, mice were sacrificed, blood and brain samples were collected. 3Bn17MeP was quantified by LC/MS-MS chromatography in both plasma and brain.

in vivo = details: Ts65Dn and WT, mouse
From the text: At the end of the behavioral study, mice were sacrificed, blood and brain samples were collected.

SMILES: CC(=O)[C@@]1(C)CC[C@H]2[C@@H]3CC=C4C[C@@H](OCc5ccccc5)CC[C@]4(C)[C@H]3CC[C@@]21C [3Bn17MeP, 3β-benzyloxy, 17α-methyl-pregn-5-en-20-one]
- Hepatotoxic effect (hepatocyte survival) [1]: no hepatotoxic effect
- inhibition at 10 µM [2]: -2%
- Choice accuracy in the flexibility test (declarative/relational memory) (Ts65Dn mice): enhanced choice accuracy of Ts65Dn mice that reached the level of WT
- concentration at 1 month (in vivo): 1.3 ng/mL
